Measured values reported in PMC3986099, “Development of a Radioiodinated Triazolopyrimidine Probe for Nuclear Medical Imaging of Fatty Acid Binding Protein 4” (PLoS ONE, 2014).

Key:
his-tagged FABP4 [1] = target: T1, his-tagged FABP4 (Homo sapiens, UniProt P15090); experiment: Competition binding assay with 1,8-ANS as tracer
T1 construct: purchased Cayman Chemical Company
Protocol: In accordance with previous reports, competition binding experiments were performed using 8-anilino-1-naphthalene sulfonic acid (1,8-ANS) as the tracer. Briefly, a mixture containing 0.12 ml phosphate buffer (50 mM, pH = 7.4), 0.03 ml TAP1 (2.6 mM–300 nM) in DMSO, 0.075 ml 1,8-ANS (24 nM) in phosphate buffer (0.2% ethanol, v/v) and 0.075 ml his-tagged FABP4 (1 µM) in phosphate buffer was incubated at room temperature for 5 min. […] The inhibition constants (K i) were calculated using the Cheng-Prusoff equation: K i = IC50/(1+[L]/K d), where [L] is the 1,8-ANS concentration and K d is the 1,8-ANS dissociation constant.

[2] = Parallel artificial membrane permeation assay (PAMPA); assay type: in vitro ADME; conditions: room temperature, read-out: permeability (PAMPA)
Protocol: The permeability of TAP1 was measured using a pre-coated PAMPA plate system (BD Biosciences) following the manufacturer's procedures. Briefly, TAP1 (100–200 µM, 0.2 ml) was added to donor plate and PBS (-) (0.2 ml) was added to the acceptor plate in the PAMPA plate assembly. After coupling both plates together and incubating at room temperature for 5 hr, 0.15 ml of the sample was obtained from each plate and 0.15 ml of the original compound solution was also obtained. Then, the absorbance of each sample was measured at 280 nm. The permeability was calculated as: Pe (cm/s) = (−ln[1−CA/Cequilibrium])/St (1/VD+1/VA) and Cequilibrium = [CDVD+CAVA]/(VD+VA). CD = C0 (AD−Abuffer)/(A0−Abuffer) and CA = C0 (AA−Abuffer)/(A0−Abuffer). C0 is the concentration of the start sample and A0, Abuffer, AD and AA are absorbances of the starting sample, buffer, donor and acceptor, respectively. VD and VA are the donor and acceptor volumes, respectively. S is the membrane area and t is the incubation time.

his-tagged FABP4 [3] = target: T1, his-tagged FABP4; experiment: Selectivity binding assay with FABP immobilized on Ni-NTA magnetic agarose beads
Protocol: For the selectivity binding assay, his-tagged FABP3 (0.75 mg/ml), FABP4 (0.75 mg/ml) and FABP5 (0.70 mg/ml) in 50 mM phosphate buffer containing 100 mM NaCl (20% glycerol, v/v, pH = 7.2) were used. Immobilization was performed following the manufacturer's procedures. Each solution of his-tagged FABP3 ([…], 1.5 µg), FABP4 (0.002 ml, 1.5 µg) or FABP5 (0.002 ml, 1.4 µg) was incubated with 0.02 ml Ni-NTA Magnetic Agarose Beads (Qiagen) and 0.5 ml protein binding buffer (50 mM NaH2PO4, 300 mM NaCl, 10 mM imidazole, pH = 8.0) at room temperature for 1 hr. After supernatant removal, protein binding buffer with 1% BSA was added, and the mixture was incubated at room temperature for 30 min. After removal of the supernatant, 0.4 ml of interaction buffer (50 mM NaH2PO4, 300 mM NaCl, 10 mM imidazole, and 0.005% Tween, v/v, pH = 8.0) and 0.05 ml [^125I]TAP1 (0.01 MBq) in interaction buffer (5% ethanol, v/v) were added. For measurement of non-specific binding, 0.05 ml of nonradioactive TAP1 in interaction buffer (5% ethanol, v/v, 11.3 µM) was added with the [^125I]TAP1. After incubation at room temperature for 2 hr, the supernatants were removed, and the beads washed with interaction buffer (5% ethanol, v/v). The radioactivity of beads in the tubes was measured with a well-type γ-counter (1480 Wizard3, PerkinElmer Japan Co., Osaka, Japan). Binding ratios were calculated as (radioactivity of beads)/(total applied radioactivity)/(protein abundance on beads)×100 (%Dose/µg protein).

[4] = system: differentiated THP-1 cells; experiment: Cell uptake study and inhibition assay; assay type: cell-based, Human; conditions: 4 °C, 3 hr
Protocol: Human monocytic leukemia THP-1 cells were obtained from ATCC and rat glioma C6 cells were from the Health Science Research Resources Bank. THP-1 cells were cultured in Gibco RPMI 1640 medium (Nissui Pharmaceutical Co., Ltd.) supplemented with 10% heat-inactivated fetal bovine serum (Nichirei Bioscience Inc.), 50 U/ml penicillin and 50 µg/ml streptomycin (Nacalai Tesque, Inc.) at 37 °C in 5% CO2. C6 cells were cultured in McCoy's 5A Modified Medium supplemented with 10% heat-inactivated fetal bovine serum, 50 U/ml penicillin and 50 µg/ml streptomycin at 37 °C in 5% CO2. For cell uptake assays, THP-1 monocytes were differentiated into macrophages by incubation with 100 nM phorbol 12-myristate 13-acetate for 24 hr.
For the cell uptake study, tubes were pre-incubated with 50 mg/ml skim milk in PBS (-) at 4 °C for 3 hr. Then, 0.4 ml of differentiated THP-1 cells (1.0×10^6 cells/tube) in PBS (-) and 0.05 ml [^125I]TAP1 in PBS (-) (0.008 MBq, 5% ethanol, v/v) were added to the tubes, and the cells were incubated at 4 °C for 3 hr. […] The radioactivity of the tubes was measured with a well-type γ-counter. […] Binding ratios were calculated as (radioactivity in tubes)/(total applied radioactivity)/(protein abundance) ×100 (%Dose/mg protein). […] After incubation at 4 °C for 3 hr, the radioactivity measurement and calculation of the binding ratio were performed as described above. […]

[5] = system: 3T3-L1 preadipocytes and differentiated adipocytes; experiment: Cell uptake study in adipocytes and preadipocytes; assay type: cell-based, Murine; conditions: concentration-dependent, 0-100 μM
Protocol: Murine 3T3-L1 preadipocytes were obtained from ATCC and cultured in Dulbecco's Modified Eagle Medium (Nissui Pharmaceutical Co., Ltd.) supplemented with 10% heat-inactivated fetal bovine serum, 50 U/ml penicillin and 50 μg/ml streptomycin at 37 °C in 5% CO2. For cell uptake assay, differentiation of 3T3-L1 cells was performed as described previously. Briefly, two days after confluence, the medium was replaced with DMEM containing 10% FBS and inducers ([…], 10 μg/ml insulin, 0.5 mM 3-isobutyl-1-methylxanthine and 10 μM pioglitazone hydrochloride) for 2 days. The medium was then changed to DMEM supplemented with 10% FBS, 10 μg/ml insulin and 10 μM pioglitazone hydrochloride, and then incubated for 2 days. Then, the medium was changed to DMEM supplemented with 10% FBS and 10 μM pioglitazone hydrochloride every other day. After 8-10 days, the differentiated adipocytes were used for experiments.
For the cell uptake study using adipocytes, the medium of 24-well plate, in which the differentiated adipocytes or undifferentiated 3T3-L1 cells are cultured, was removed. […] Following the measurement of the radioactivity of collected cell lysate with a well-type γ-counter, protein determination was performed. […] Binding ratios were calculated as (radioactivity in collected cells)/(total applied radioactivity)/(protein abundance) x 100 (%Dose/mg protein).

T1 sequence (P15090 whole entry): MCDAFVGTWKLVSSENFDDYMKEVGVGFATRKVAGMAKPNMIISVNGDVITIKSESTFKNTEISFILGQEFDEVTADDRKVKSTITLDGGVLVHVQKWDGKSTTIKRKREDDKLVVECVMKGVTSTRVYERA

Row | Compound | Kd (his-tagged FABP4 [1]) [nM] | Papp at 5 h [2] [×10⁻⁶ cm/s] | FABP4 binding relative to FABP3 (his-tagged FABP4 [3]; FABP4 over FABP3) | FABP4 binding relative to FABP5 (his-tagged FABP4 [3]; FABP4 over FABP5) | inhibition of [^125I]TAP1 uptake into differentiated THP-1 cells [4] | Ki (his-tagged FABP4 [1]; competition with 1,8-ANS, FABP4) [nM] | inhibition of [^125I]TAP1 uptake into adipocytes [5]
1 | O=S(=O)(O)c1cccc2cccc(Nc3ccccc3)c12 [1,8-ANS, 8-anilino-1-naphthalene sulfonic acid, reference compound] | 1200 |  |  |  |  |  | 
2 | O=c1cc(COc2cccc(I)c2)[nH]c2nc(-c3ccccc3)nn12 [TAP1, 5-{(3-Iodophenoxy)methyl}-2-phenyl-[1], [2], [4]triazolo[1,5-a]pyrimidin-7(4H)-one] |  | 12.6 ± 2.9 | more than 10 fold | more than 10 fold | significantly inhibited | 44.5 ± 9.8 | 
3 | CCc1c(-c2ccccc2)c(-c2ccccc2)nn1-c1ccccc1-c1cccc(OCC(=O)O)c1 [BMS309403, reference compound] |  |  |  |  | significantly inhibited |  | significantly inhibited
